Assay results taken from article PMC11973282, “RAS70 peptide targets multiforme glioblastoma by binding to the plasma membrane heat shock protein HSP70” (Frontiers in Oncology, 2025).

What was measured:
Assay type in all cases: cell-based
[1] = test system: mHsp70-negative dermal fibroblasts; test: Flow cytometry of FITC-labeled peptide internalization, negative control cells
[2] = test system: human glioblastoma U251 cells; test: Flow cytometry of FITC-labeled peptide internalization, 24 h; details: 50 μg/mL, M ± SE, 3 independent experiments
Description: (§1) The binding of the TKD-sCy5, RAS70-sCy5, and NGL-RGD-sCy5 peptides were analyzed using a CytoFLEX flow cytometer (Beckman Coulter, USA). A single cell suspension of C6, GL261, T98G, U87, U251, ANI, IBD, TMS (0.15×10^6 cells in mL^-1) were incubated for 30 minutes on ice in the dark with peptides in concentration of 75 μg/mL, and then washed with cold PBS solution. Cells without peptides were used as controls. To evaluate incorporation of the fluorescently-labeled peptides for longer period of co-incubation of 24 h cells (C6, GL261, U87, U251) were treated with FITC-labeled peptides, then washed with PBS and assessed on a CytoFLEX flow cytometer (Beckman Coulter, USA). Following FACS analysis cell pellet was further evaluated employing confocal microscopy Leica TCS SP8 (Leica Microsystems, Germany).
(§2) The incorporation of peptides over longer periods of co-incubation with brain tumor cells was additionally analyzed using a Cytomics FC500 flow cytometer (BeckmanCoulter, USA). Tumor cells (C6, GL261, U87, U251) were incubated with peptides (concentration 50 μg/mL) for 24 hours, washed with PBS. Internalization of FITC-labeled peptides was assessed by determining the mean fluorescence intensity (MFI). According to the study data ( Figure 6A ), it was shown that TKD peptide accumulated in all cell lines – 2120 ± 152 (C6), 2099 ± 107 (GL261), 2145 ± 189 (U87), 2373 ± 201 (U251) compared to the control scramble peptide (NGL) – 378 ± 48 (C6), 344 ± 57 (GL261), 301 ± 66 (U87), 313 ± 56 (U251) (P<0.001). […] Following FACS analysis the cell pellet was collected and evaluated for peptides cell uptake employing confocal microscopy ( Figure 6B ). The obtained microscopy data confirmed higher accumulation of RAS70 peptide in studied cell lines as compared to TKD or scramble peptides.
(§3) Figure 6 Evaluation of the mHsp70-targeting peptides internalization by glioma cells. (A) Flow cytometric evaluation of FITC-labeled peptide accumulation in tumor cell lines (rat glioma C6, mouse glioma GL261, human glioblastoma U87 and U251) after co-incubation for 24 hours. […] (B) Confocal microscopy assessment of FITC-labeled peptide accumulation in tumor cell lines (rat glioma C6, mouse glioma GL261, human glioblastoma U87 and U251) after co-incubation for 24 hours. […] (C) Analysis of the peptides uptake by human U87 glioblastoma cells following co-incubation for 24 hours.

[3] = test system: GL261 (mouse glioma) cells; test: as above; details: 50 μg/mL, M ± SE, 3 independent experiments
Description: as §1, §2, §3

C6 (rat glioma) cells = test: as above; details: 50 μg/mL, M ± SE, 3 independent experiments
Description: as §1, §2, §3

[4] = test system: C6, GL261, T98G mHsp70-positive tumor cells; test: Confocal microscopy of peptide binding and internalization; details: for internalization/accumulation in tumor cells by confocal microscopy: 75 μg/mL, co-incubation 15, 30 and 60 minutes
Description: The binding of the TKD-sCy5, RAS70-sCy5, and NGL-RGD-sCy5 peptides to tumor cells was visualized using the Olympus FV3000 confocal system (Olympus, Japan). The C6, GL261, T98G, ANI, IBD, TMS cells (0.1×10^6 mL^-1 cells) were placed on Nunc™ Lab-Tek™ Chamber Slide System (Thermo Fisher Scientific, USA) and kept overnight. For primary GBM cells the chambers were pre-coated with Matrigel (0.2 mg/mL, Corning, New York, USA) to increase adhesion properties. The cells were incubated with peptides at a concentration of 75 μg/mL for 15, 30, and 60 minutes on ice in the dark. After the incubation cells were washed with PBS, fixed in a 10% formalin solution (Sigma-Aldrich, Burlington, USA), and mounted using a mounting medium containing DAPI (Ibidi, Graefelfing, Germany). Unstained cells were used as controls.
To study the mechanisms of peptide internalization, cells were incubated with peptides for 30 minutes in 37°C in a 5% CO2, washed with PBS, fixed in a 10% formalin solution (Sigma-Aldrich, USA), permeabilized with 0,1% Triton-X100 solution (Servicebio, Wuhan, China), blocked with 5% bovine serum albumin solution and incubated overnight with Alexa Fluor® 488 Anti-Rab5 antibody [EPR21801] (#ab270094, abcam, USA), and with Alexa Fluor® 488 Anti-LAMP1 antibody [EPR24395-31] (#281758, abcam, USA). After 24 hours cells were washed with 0,1% Tween-20 solution (Sigma-Aldrich, Burlington, USA) and mounted using a mounting medium containing DAPI (Ibidi, Graefelfing, Germany). To study the co-localization of the peptide with endolysosomal markers the raw confocal images (n = 10 for each group) were obtained in a 3-channel, 1024 × 1024 pixel format. Colocalization coefficient (τ-Kendall rank correlation value) was computed with the Coloc2 plugin and ImageJ 1.54g ([32]).
The next step was co-incubation of the target peptide RAS70 labeled with fluorescent dye Cy5 with tumor cells for 15, 30 and 60 minutes, followed by confocal microscopy analysis. […] To exclude processes of active internalization of the peptide, co-incubation of the cells on ice at +4°C was performed. […] Next, we evaluated the targeting properties of RAS70 on primary glioblastoma cells (ANI, IBD, TMS) obtained from neuro-oncological patients ([3]) that were additionally characterized for mHsp70, SOX2, NESTIN, GFAP, β3-Tubulin, Ki-67, and CD133 ( Figures 3A–I ).

[5] = test system: human U87 glioblastoma cells; test: Flow cytometry of FITC-labeled peptide internalization, 24 h (also with antibody pre-treatment); details: for peptide internalization after pre-treatment with anti-Hsp70 antibodies: cells pre-treated with anti-Hsp70 mAbs SPA-810, SPA-815 (1:250); for peptide uptake after pre-treatment with both anti-Hsp70 and anti-αvβ3/-αvβ5 mAbs: combination of antibodies; for mean fluorescence intensity (MFI), internalization of FITC-labeled peptide: U87, 50 μg/mL, 24 hours, flow cytometry, M ± SE, 3 independent experiments
Description: as §1, §2, §3
To evaluate the mHsp70-mediated uptake of the peptides prior to co-incubation with either TKD or RAS70 peptides cells were pre-treated with anti-Hsp70 antibodies (SPA-810, SPA-815) that are known to target the membrane-bound chaperone on cancer cells ([37]). […] The tripeptide RGD (Arg-Gly-Asp) motif is known to bind to integrins, including αvβ3 and αvβ5 expressed on brain tumor cells and tumor endothelial cells ([38], [39]). […] As expected, we observed the decrease of NGL-RGD and RAS70 internalization by tumor cells but not of TKD or NGL peptides ( Figure 6C ).

Structure (SMILES)	accumulation of peptide in mHsp70-negative cells [1]	mean fluorescence intensity (MFI), internalization of FITC-labeled peptide [2]	mean fluorescence intensity (MFI), internalization of FITC-labeled peptide [3]	mean fluorescence intensity (MFI), internalization of FITC-labeled peptide (C6 (rat glioma) cells)	co-localization with early endosome (Rab5) and lysosome (LAMP-1) markers ([4]; 30 minutes at 37°C, confocal microscopy)	internalization/accumulation in tumor cells by confocal microscopy ([4]; Cy5-labeled peptide)	subcellular localization ([4]; Cy5-labeled peptide, confocal microscopy)	penetration into cells on ice ([4]; co-incubation on ice at +4°C to exclude active internalization, data not shown)	peptide internalization after pre-treatment with anti-Hsp70 antibodies ([5]; U87, 24 hours)	peptide internalization after pre-treatment with anti-αvβ3 and -αvβ5 antibodies ([5]; U87, 24 hours, cells pre-treated with anti-αvβ3 (LM609) and anti-αvβ5 (P1F6) mAbs (1:200))	peptide uptake after pre-treatment with both anti-Hsp70 and anti-αvβ3/-αvβ5 mAbs ([5]; U87, 24 hours)	mean fluorescence intensity (MFI), internalization of FITC-labeled peptide [5]
CC(C)C[C@H](NC(=O)[C@H](CC(C)C)NC(=O)[C@H](CC(N)=O)NC(=O)[C@H](CC(N)=O)NC(=O)[C@H](CC(=O)O)NC(=O)[C@H](CCCCN)NC(=O)[C@@H](N)[C@@H](C)O)C(=O)NCC(=O)N[C@@H](CCCNC(=N)N)C(=O)N[C@@H](Cc1ccccc1)C(=O)N[C@@H](CCC(=O)O)C(=O)N[C@@H](CC(C)C)C(=O)N[C@@H](CO)C(=O)NCC(=O)NCCC(=O)N[C@@H](CCCNC(=N)N)C(=O)NCC(=O)N[C@@H](CC(=O)O)C(=O)O [RAS70]	did not detect the accumulation	3678 ± 212	3012 ± 182	2671 ± 201	only partially penetrated the cell via the endolysosomal pathway	higher accumulation of the peptide was detected as compared to TKD or control	predominantly localized in the cytoplasm of cells without penetrating into the nuclei	significant decrease in the penetration	significant decrease	decrease	significant abrogation	2999 ± 209
CC(C)C[C@H](NC(=O)[C@H](CC(C)C)NC(=O)[C@H](CC(N)=O)NC(=O)[C@H](CC(N)=O)NC(=O)[C@H](CC(=O)O)NC(=O)[C@H](CCCCN)NC(=O)[C@@H](N)[C@@H](C)O)C(=O)NCC(=O)N[C@@H](CCCNC(=N)N)C(=O)N[C@@H](Cc1ccccc1)C(=O)N[C@@H](CCC(=O)O)C(=O)N[C@@H](CC(C)C)C(=O)N[C@@H](CO)C(=O)NCC(=O)O [TKD]	did not detect the accumulation	2373 ± 201	2099 ± 107	2120 ± 152		internalization of the TKD peptide by tumor cells was noted, reaching maximum absorption of the peptide after 60 minutes			significant decrease		significant abrogation	2145 ± 189
